Reference: EP1087973B1, “IMIDAZOTRIAZOLOPYRIMIDINES USED AS A DRUG HAVING AN ADENOSINE ANTAGONIST ACTIVITY” (Boehringer Ingelheim Pharma KG, priority 1998, dated 1999)

Tests used:
[1] = target: T1, human A1 adenosine Receptor (Homo sapiens, UniProt P30542); test: A1 receptor binding, determined in analogy to Ensinger et al.; details: KiA1 (human) Rezeptorbindungswerte, Tabelle 2; read-out: KjA1
T1 sequence (P30542 1-326): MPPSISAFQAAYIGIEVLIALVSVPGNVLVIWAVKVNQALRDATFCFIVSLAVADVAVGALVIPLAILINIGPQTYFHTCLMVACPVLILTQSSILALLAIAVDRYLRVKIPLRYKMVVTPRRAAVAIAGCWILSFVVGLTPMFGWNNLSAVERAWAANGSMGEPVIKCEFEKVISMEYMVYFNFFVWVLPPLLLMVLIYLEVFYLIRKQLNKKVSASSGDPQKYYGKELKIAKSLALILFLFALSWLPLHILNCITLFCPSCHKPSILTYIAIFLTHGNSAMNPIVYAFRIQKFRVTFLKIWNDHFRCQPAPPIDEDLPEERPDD
Excerpt: Die nachfolgende Tabelle enthält KiA1 (human) Rezeptorbindungswerte.

[2] = target: T2, human A3-adenosine receptor (Homo sapiens, UniProt P0DMS8); test: A3 receptor binding, determined in analogy to Salvatore et al.; details: KiA3 (human) Rezeptorbindungswerte, Tabelle 3
T2 sequence (P0DMS8 1-318): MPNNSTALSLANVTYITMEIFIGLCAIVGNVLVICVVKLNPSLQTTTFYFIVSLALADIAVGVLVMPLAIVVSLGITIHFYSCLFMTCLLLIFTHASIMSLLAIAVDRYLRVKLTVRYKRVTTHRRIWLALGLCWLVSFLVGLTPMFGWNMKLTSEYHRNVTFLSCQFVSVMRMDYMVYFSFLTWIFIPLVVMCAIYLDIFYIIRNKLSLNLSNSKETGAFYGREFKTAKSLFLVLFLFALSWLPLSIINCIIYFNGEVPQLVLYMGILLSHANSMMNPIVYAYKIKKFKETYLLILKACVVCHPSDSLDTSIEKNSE
Excerpt: Tabelle 3 enthält KiA3 (human) Rezeptorbindungswerte.

Structure (SMILES) | Ki [1] [nM] | Ki [2] [nM]
CCn1c(=O)c2[nH]c(C(C)(C)C)nc2n2nc(Cc3ccc(OC)cc3)nc12 [Beispiel 15, 7-t-Butyl-4-ethyl-2-(4-methoxybenzyl)-imi-dazo[4.5-e]-s-triazolo[1.5-a]pyrimidin-5-on] | 2.1 | 
CCCn1c(=O)c2[nH]c(C)nc2n2nc(Cc3ccccc3)nc12 [Beispiel 8, 2-Benzyl-7-methyl-4-n-propyl-imidazo[4.5-e]-s-triazolo[1.5-a]pyrimidin-5-on] |  | 0.9
CCCc1nc2c([nH]1)c(=O)n(CCC)c1nc(-c3ccco3)nn21 [Beispiel 37, 2-(2-Furanyl)-4,7-di-n-propyl-imidazo[4.5-e]-s-triazolo[1.5-a]pyrimidin-5-on] |  | 8.3
CCCc1nc2c([nH]1)c(=O)n(CCC)c1nc(C3CCCC3)nn21 [Beispiel 2, 2-Cyclopentyl-4,7-di-n-propyl-imidazo[4.5-e]-s-triazolo[1.5-a]pyrimidin-5-on] |  | 5.6
CCn1c(=O)c2[nH]c(C(C)(C)C)nc2n2nc(Cc3ccc(O)cc3)nc12 [Beispiel 12, 7-t-Butyl-4-ethyl-2-(4-hydroxybenzyl)-imi-dazo[4.5-e]-s-triazolo[1.5-a]pyrimidin-5-on] | 6 | 
CCn1c(=O)c2[nH]c(C3CCCC3)nc2n2nc(Cn3cccc3)nc12 [Beispiel 35, 7-Cyclopentyl-4-ethyl-2-(N-pyrrolylmethyl)-imidazo[4.5-e]-s-triazolo[1.5-a]pyrimidin-5-on] | 2.6 | 
CCCc1nc2c([nH]1)c(=O)n(CC)c1nc(CCc3ccccc3)nn21 [Beispiel 11, 4-Ethyl-2-(2-phenylethyl)-7-n-propyl-imi-dazo[4.5-e]-s-triazolo[1.5-a]pyrimidin-5-on] | 8.1 | 
CCn1c(=O)c2[nH]c(C)nc2n2nc(CCc3ccccc3)nc12 [Beispiel 10, 4-Ethyl-7-methyl-2-(2-phenylethyl)-imi-dazo[4.5-e]-s-triazolo[1.5-a]pyrimidin-5-on] |  | 7.2
CCCn1c(=O)c2[nH]c(C)nc2n2nc(-c3ccco3)nc12 [Beispiel 36, 2-(2-Furanyl)-7-methyl-4-n-propyl-imi-dazo[4.5-e]-s-triazolo[1.5-a]pyrimidin-5-on] |  | 2.2
CCn1c(=O)c2[nH]c(C3CCCC3)nc2n2nc(COc3ccccc3)nc12 [Beispiel 29, 7-Cyclopentyl-4-ethyl-2-phenyloxymethyl-imidazo[4.5-e]-s-triazolo[1.5-a]pyrimidin-5-on] | 3.6 | 
